Data on 9 compounds can be found in patent publication US11744889B2, “Skin microenvironment targeted delivery for promoting immune and other responses” (University of Pittsburgh—Of the Commonwealth System of …, priority 2016, dated 2023).

One series has as its system B16 melanoma. Briefly: Treatment of established B16 skin tumors with MNAs. To be noted: MNA once weekly for three weeks; for survival: untreated 100% mortality.
In series [1] the test system is OVA-specific CTL activity. Description: OVA-specific CTL activity in vivo after CMC-microneedle array immunization. To be noted: mice immunized on ears with pyramidal arrays, boosted one week later.
A short description of series [2]: MNA DNBS dose response, ear thickness increase and histology. Type of series: in vivo, mouse. To be noted: MNAs with 25 ng, 50 ng and 100 ng tested; ear thickness increase. The method, then:
These figures illustrate an exemplary MNA DNBS dose response, by indicating an optimal lowest dose of hapten contained in MNAs capable of inducing effective skin acute and chronic inflammation. In particular, FIG. 51A charts MNA DNBS doses as a percentage of ear thickness increase. FIG. 51B provides histological detail of treated ear skin following the application of MNAs with the three different doses of DNBS (25 ng, 50 ng, and 100 ng).

Series [3] in a line: Dye release from MNAs inserted into 4% agar test-gels. Type of series: physicochemical. The settings on record: dually loaded MNA. From the text:
To illustrate the delivery of multiple drugs with distinct release kinetics, MNAs were fabricated to delivery two distinct cargos by distinct release kinetics. Specifically, MNAs were fabricated to release the marker Toluidine Blue in an initial burst, followed by a sustained release of the marker FD&C Red40. Dyes were directly loaded in the MNA scaffold matrix (in this case CMC) of the needle tips and in some cases a second dye, encapsulated in a sustained release polymer was layer directly below. MNAs were inserted into 4% agar test-gels and removed after 1 min.
Images of dye diffusion were collected at the indicated time points (FIG. 39A). As shown in FIGS. 39A-C, FD&C Red40 (FIG. 39A) and toluidine blue (FIG. 39B), tracer dyes were tip-loaded in MNAs for immediate release. Alternatively, MNAs were fabricated with toluidine blue tip-loaded and FD&C Red40 encapsulated in a sustained release polymer (FIG. 39C). MNAs were inserted into 4% agar test-gel and removed after 1 min. Images were collected at the indicated time-points. Tip-loaded cargos were rapidly released from the MNAs and dispersed progressively in the gel (FIG. 39A and B). […] Upper panels depict images of microneedles from MNAs before application. The middle images are the imprints of the arrays 1 minute after application and MNA removal. Lower panels depicted the indicated representative magnified images at the indicated time points.

Another series concerns epidermal cells. To be noted: 5 mg/g of CMC, about 140 μg per array; 72 hours of exposure.
Series [4] concerns the target T1, NK1R (Mus musculus, UniProt P30548).
T1 construct: from tissue
Description: Histology of skin and skin draining lymph nodes of B6-WT mice sensitized with DNCB with or without SarSP. The format is in vivo. From the text:
(A & C: H and E, 200×; Insets, 1,000×; B & D: TB, 200×; Insets 1,000×; NT refers to non-treated mice.)
The effect of different treatments in B6-WT mice was compared with n=6/experimental group.

In series [5] the target is T2, NK1R (Homo sapiens, UniProt P25103).
T2 construct: adding SarSP to human mixed leukocyte cultures (MLC) using skin DC as stimulators of allogeneic naïve CD4 T cells; endogenous in cells; host or cells: human skin dendritic cells from skin explants, co-cultured with allogeneic T cells (MLC)
T2 sequence (P25103 whole entry): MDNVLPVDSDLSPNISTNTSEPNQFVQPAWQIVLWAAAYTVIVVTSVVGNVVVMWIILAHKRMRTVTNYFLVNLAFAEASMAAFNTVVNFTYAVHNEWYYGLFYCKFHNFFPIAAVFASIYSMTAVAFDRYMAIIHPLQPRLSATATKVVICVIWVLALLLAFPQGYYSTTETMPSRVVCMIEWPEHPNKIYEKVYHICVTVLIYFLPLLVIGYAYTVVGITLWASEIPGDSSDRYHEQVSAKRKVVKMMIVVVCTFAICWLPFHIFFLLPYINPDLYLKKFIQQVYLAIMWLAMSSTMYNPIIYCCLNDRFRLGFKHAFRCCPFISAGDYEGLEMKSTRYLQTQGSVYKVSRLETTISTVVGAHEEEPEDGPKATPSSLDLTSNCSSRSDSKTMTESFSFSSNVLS
Briefly: Human mixed leukocyte cultures (MLC), skin DC as stimulators of allogeneic naive CD4 T cells, with SarSP. The settings on record: SarSP added to MLC. Type of series: cell-based. From the text: FIGS. 42A and 42B show human skin DCs express functional NK1R. […] Conventional rigid MNA with pyramid geometry can suffer from limited skin penetration, and poor and unreliable cargo delivery capacity compared to the novel microneedle structures disclosed herein. For example, in some embodiments, the delivery systems disclosed herein integrate biologics into dissolvable carboxymethyl-cellulose (CMC) microneedles with obelisk geometries.

The target in series [6] is T1, NK1R. Briefly: DTH reaction in mice sensitized with DNCB with NK1R agonist SarSP. Type of series: in vivo. To be noted: C57BL/6 (B6) mice sensitized with DNCB in the presence of SarSP (10^−9 M). From the text: The effect of different treatments in B6-WT mice was compared with n=6/experimental group. […] The inflammatory infiltrate was composed of leukocytes including polimorphonuclear neutrophils (PMN) and eosinophils as shown in the inset of FIG. 45A.
Means±1SD of 6 mice/experimental group are illustrated, with three independent experiments performed.

“Also recorded” adds a separate entry of the source.

T1 sequence (P30548 whole entry): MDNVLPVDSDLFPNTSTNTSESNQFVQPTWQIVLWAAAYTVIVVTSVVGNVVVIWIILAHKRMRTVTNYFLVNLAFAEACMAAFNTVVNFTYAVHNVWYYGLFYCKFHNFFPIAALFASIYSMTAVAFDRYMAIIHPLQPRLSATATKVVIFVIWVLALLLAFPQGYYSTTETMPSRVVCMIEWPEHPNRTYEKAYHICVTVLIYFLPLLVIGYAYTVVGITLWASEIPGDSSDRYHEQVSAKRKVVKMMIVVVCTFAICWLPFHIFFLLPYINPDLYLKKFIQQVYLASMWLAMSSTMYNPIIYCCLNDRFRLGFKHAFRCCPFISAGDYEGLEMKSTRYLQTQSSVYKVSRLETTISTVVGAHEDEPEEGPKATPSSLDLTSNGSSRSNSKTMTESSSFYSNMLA
Description for B16 melanoma: B16 skin tumors were established in normal mice by injection. Visible established cutaneous tumors were treated once weekly for three weeks with MNAs containing either doxorubicin alone, Poly(I:C) alone, or doxorubicin and Poly(I:C) incorporated into the same MNA. The doxorubicin dose chosen corresponds to an MNA dose that induces apoptosis in human skin without causing necrosis. Tumor growth and survival were measured regularly for the duration of the study.
Description for epidermal cells: Cytoxan® was integrated at a concentration of 5 mg/g of CMC, enabling delivery of approximately about 140 μg per array. […] Living human skin organ cultures were used to assess the cytotoxicity of Cytoxan®. Cytoxan® was delivered by application of arrays to skin explants as we previously described. Arrays and residual material were removed 5 minutes after application, and after 72 hours of exposure, culture living skin explants were cryo-sectioned and fixed.

`COc1cccc2c1C(=O)c1c(O)c3c(c(O)c1C2=O)C[C@@](O)(C(=O)CO)C[C@@H]3O[C@H]1C[C@H](N)[C@H](O)[C@H](C)O1` [doxorubicin]: in the series with B16 melanoma, the tumor growth entry was “slowed tumor growth” and the survival amounted to 30%.

In the case of Poly(I:C), in the series on B16 melanoma, the tumor growth result is listed as “slowed tumor growth” and the survival was 50%.

With “soluble OVA: soluble ovalbumin, model antigen, in CMC microneedle arrays”, the “OVA-specific CTL activity in vivo” value in series [1] is recorded as “Significant OVA-specific CTL activity”.

Turning to `O=[N+]([O-])c1ccc(S(=O)(=O)O)c([N+](=O)[O-])c1` [DNBS, 2,4-Dinitrobenzenesulfonic acid], the “optimal, lowest dose inducing skin acute and chronic inflammation” value in series [2] was 50 ng.

For `Cc1cc2nc3ccc(N(C)C)cc3[s+]c2cc1N.[Cl-]` [Toluidine Blue], the “release of tip-loaded dye” value in series [3] (dye in CMC in the needle tip) is on record as “released in an initial burst”.

As for `O=P1(N(CCCl)CCCl)NCCCO1` (stereo not shown) [Cytoxan®, cyclophosphamide], in the series on epidermal cells, the “apoptosis of epidermal cells (TUNEL)” value is “extensive apoptosis of epidermal cells”.

Turning to Sar^9 Met(O2)^11—SP [SarSP], the “MC activation and degranulation in skin” value at NK1R [4] (B6-WT mice) was “triggered MC activation and degranulation”. Moreover, the “inflammatory response in skin” value was “did not induce inflammatory response” on NK1R [4] (agent administered alone, B6-WT mice); “significantly increased the number of inflammatory cells; also recorded: dramatically increased the magnitude of the inflammatory response and tissue damage” at NK1R [4] (co-administration with DNCB, B6-WT mice). The “inflammatory infiltrate in skin draining lymph node” value at NK1R [4] (co-administration with DNCB) is reported as “significantly increases the inflammatory infiltrate”. The “number of MC in draining lymph nodes” value on NK1R [4] (mouse, in vivo) is listed as “induced an increased number of MC”. For the same compound, the IFN-γ secretion entry at NK1R [5] is on record as “significantly augmented”. For the same compound, at NK1R [5], the Tcell proliferation entry is “significantly augmented”. Moreover, the DTH reactions entry on NK1R [6] is listed as “significantly increased DTH reactions”.

Consider `COc1cc(S(=O)(=O)[O-])c(C)cc1N=Nc1c(O)ccc2cc(S(=O)(=O)[O-])ccc12.[Na+].[Na+]` [FD&C Red40], for which the “release of encapsulated dye” value in series [3] (dye encapsulated in sustained release polymer) was “released slowly over an extended time period”. Also, in series [3] (dye in underlying layer of sustained release polymer), the “period of release from depot” value stood at 10 days.

With “particulate OVA: particulate ovalbumin, model antigen, in CMC microneedle arrays”, the “OVA-specific CTL activity in vivo” value in series [1] is “Significant OVA-specific CTL activity”.
